Assay results published in patent US5140102A, “Pentadecapeptide, guanylin, which stimulates intestinal guanylate cyclase” (Monsanto Company, priority 1991, dated 1992).
Blank lines part the entries; values can stand above or below the compound they belong to. Positions of bridges follow the written chain, without caps; N, C: chain ends. Residues, ends and D or L forms follow the SMILES beside them.

Tests used:
proximal colon = details: read-out: EC50 for increase in Isc (X±S.E.); mucosal (luminal) addition, rat proximal colon, n=4 animals
[1] = biological target: T1, intestinal guanylate cyclase (Homo sapiens, UniProt P25092); assay: Cyclic GMP determination in T84 cells (bioassay); format: cell-based
T1 construct: Monolayers of T84 cells in 24-well plates were washed twice; host or cells: T84 human colon carcinoma cells
T1 sequence (P25092 24-1073): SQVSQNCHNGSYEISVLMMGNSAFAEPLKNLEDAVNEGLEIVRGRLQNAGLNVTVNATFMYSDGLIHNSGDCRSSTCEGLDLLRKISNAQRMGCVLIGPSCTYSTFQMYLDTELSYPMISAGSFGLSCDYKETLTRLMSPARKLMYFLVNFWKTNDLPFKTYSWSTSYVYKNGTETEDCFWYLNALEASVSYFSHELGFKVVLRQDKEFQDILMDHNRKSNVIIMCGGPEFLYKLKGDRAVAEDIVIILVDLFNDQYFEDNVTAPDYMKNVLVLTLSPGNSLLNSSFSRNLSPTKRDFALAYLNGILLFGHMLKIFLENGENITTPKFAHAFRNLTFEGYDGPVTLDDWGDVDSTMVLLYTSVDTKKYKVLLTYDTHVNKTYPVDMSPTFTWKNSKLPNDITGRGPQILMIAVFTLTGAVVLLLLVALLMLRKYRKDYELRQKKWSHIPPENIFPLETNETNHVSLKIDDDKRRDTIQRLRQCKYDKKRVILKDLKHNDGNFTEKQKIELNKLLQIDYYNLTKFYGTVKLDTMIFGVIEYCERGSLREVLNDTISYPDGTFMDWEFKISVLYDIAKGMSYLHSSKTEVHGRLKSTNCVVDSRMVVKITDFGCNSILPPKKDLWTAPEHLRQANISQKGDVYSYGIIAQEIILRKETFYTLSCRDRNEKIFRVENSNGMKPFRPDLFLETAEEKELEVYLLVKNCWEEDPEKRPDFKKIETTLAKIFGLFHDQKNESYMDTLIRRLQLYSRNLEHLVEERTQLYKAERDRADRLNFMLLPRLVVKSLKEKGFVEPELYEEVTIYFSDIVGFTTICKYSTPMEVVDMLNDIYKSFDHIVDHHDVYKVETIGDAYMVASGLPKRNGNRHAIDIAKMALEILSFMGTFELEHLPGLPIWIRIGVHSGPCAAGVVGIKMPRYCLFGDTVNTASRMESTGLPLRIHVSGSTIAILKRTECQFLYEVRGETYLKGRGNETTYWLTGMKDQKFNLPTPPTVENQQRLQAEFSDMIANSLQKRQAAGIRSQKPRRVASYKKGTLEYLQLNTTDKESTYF

Compound: CC[C@H](C)[C@@H]1NC(=O)[C@H](CCC(=O)O)NC(=O)[C@@H](NC(=O)[C@@H](NC(=O)[C@H](CC(N)=O)NC(=O)[C@@H]2CCCN2)[C@@H](C)O)CSSC[C@@H]2NC(=O)[C@H](C)NC(=O)[C@H](C)NC(=O)[C@H](Cc3ccc(O)cc3)NC(=O)[C@H](C)NC(=O)[C@H](CSSC[C@@H](C(=O)O)NC(=O)CNC(=O)[C@H]([C@@H](C)O)NC2=O)NC1=O [guanylin] (H-PNTCEICAYAACTGC-OH; disulfide 4-12, 7-15)
EC50 (proximal colon): 162 ± 26 nM

effect on responsiveness of the cells ([1]; T84 cells treated with 10 μM): failed to affect their responsiveness
Compound: O[C@H](CS)[C@H](O)CS (racemic) [DTT, dithiothreitol]

Compound: CC[C@H](C)[C@@H]1NC(=O)[C@H](CCCNC(=N)N)NC(=O)[C@H](CC(=O)O)NC(=O)[C@H](CCSC)NC(=O)[C@H](CCCNC(=N)N)NC(=O)CNC(=O)CNC(=O)[C@H](Cc2ccccc2)NC(=O)[C@@H](NC(=O)[C@H](CO)NC(=O)[C@H](CO)NC(=O)[C@H](CCCNC(=N)N)NC(=O)[C@H](CCCNC(=N)N)NC(=O)[C@H](CC(C)C)NC(=O)[C@@H](N)CO)CSSC[C@@H](C(=O)N[C@@H](CC(N)=O)C(=O)N[C@@H](CO)C(=O)N[C@@H](Cc2ccccc2)C(=O)N[C@@H](CCCNC(=N)N)C(=O)N[C@@H](Cc2ccc(O)cc2)C(=O)O)NC(=O)CNC(=O)[C@H](CC(C)C)NC(=O)CNC(=O)[C@H](CO)NC(=O)[C@H](CCC(N)=O)NC(=O)[C@H](C)NC(=O)CNC1=O [atrial natriuretic peptide]
effect on cyclic GMP levels [1]: not detected
